Experimental data published in article PMC6021681, “Characterization of the Anti-Hepatitis C Virus Activity of New Nonpeptidic Small-Molecule Cyclophilin Inhibitors with the Potential for Broad Anti-Flaviviridae Activity” (Antimicrobial Agents and Chemotherapy, 2018).
Where two headings read alike, the source gives them in different places.

Legend:
ZIKV strain MR766 = experiment: ZIKV replication in Huh7 cells, RT-qPCR; type: cell-based, Zika virus
CypA = molecular target: T1, CypA (Homo sapiens, UniProt P62937); experiment: TR-FRET competitive binding assay against labeled CsA
T1 construct: purchased Selcia, Ongar, UK
T1 sequence (P62937 whole entry): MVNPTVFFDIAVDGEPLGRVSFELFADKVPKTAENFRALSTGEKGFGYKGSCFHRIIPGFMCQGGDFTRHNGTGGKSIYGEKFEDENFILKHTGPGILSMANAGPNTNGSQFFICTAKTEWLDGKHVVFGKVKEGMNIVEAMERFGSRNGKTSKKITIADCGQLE

[1] = test system: chimeric genotype 2a/4a HCV-SGR; experiment: chimeric genotype 2a/4a HCV-SGR, transient, luciferase; conditions: read-out: Mean EC50 ± SD, HCV-SGR Genotype 2a/4a
[2] = test system: genotype 1b HCV-SGR I133V; experiment: microbe, parasite or virus in culture; type: cell-based, hepatitis C virus; conditions: for EC50: 96 h, read-out: Mean EC50 ± SD, I133V
Protocol: (§1) Candidate resistance-associated substitutions (RASs) were introduced into a wild-type genotype 1b HCV-SGR containing the luciferase reporter gene by means of site-directed mutagenesis (QuikChange II XL site-directed mutagenesis kit; Agilent Technologies, Santa Clara, CA, USA). […] The replication capacity of the RAS-containing HCV-SGR was assessed by comparing luciferase activities at 4 h and 96 h posttransfection and expressed as a percentage of the wild-type replication capacity.

[3] = test system: genotype 1b HCV-SGR E442G; experiment: microbe, parasite or virus in culture; type: cell-based, hepatitis C virus; conditions: for EC50: 96 h, read-out: Mean EC50 ± SD, E442G
Protocol: as §1

[4] = test system: genotype 1b HCV-SGR L303P; experiment: microbe, parasite or virus in culture; type: cell-based, hepatitis C virus; conditions: for EC50: 96 h, read-out: Mean EC50 ± SD, L303P
Protocol: as §1

[5] = test system: genotype 1b HCV-SGR D320E; experiment: microbe, parasite or virus in culture; type: cell-based, hepatitis C virus; conditions: for EC50: 96 h, read-out: Mean EC50 ± SD, D320E
Protocol: as §1

[6] = test system: genotype 1b HCV-SGR Y321H; experiment: microbe, parasite or virus in culture; type: cell-based, hepatitis C virus; conditions: for EC50: 96 h, read-out: Mean EC50 ± SD, Y321H
Protocol: as §1

[7] = test system: genotype 1b HCV-SGR K308I; experiment: microbe, parasite or virus in culture; type: cell-based, hepatitis C virus; conditions: for EC50: 96 h, read-out: Mean EC50 ± SD, K308I
Protocol: as §1

[8] = test system: genotype 1b HCV-SGR R304W; experiment: microbe, parasite or virus in culture; type: cell-based, hepatitis C virus; conditions: for EC50: 96 h, read-out: Mean EC50 ± SD, R304W
Protocol: as §1

genotype 1a HCV-SGR = experiment: microbe, parasite or virus in culture; type: cell-based, hepatitis C virus
genotype 2a HCV-SGR = experiment: genotype 2a HCV-SGR, transient, luciferase; conditions: read-out: Mean EC50 ± SD, HCV-SGR Genotype 2a
genotype 3a HCV-SGR = experiment: genotype 3a HCV-SGR, stable Huh7.5 cells, luciferase; type: cell-based, hepatitis C virus; conditions: 48 h, read-out: Mean EC50 ± SD, HCV-SGR Genotype 3a
genotype 5a HCV-SGR = experiment: genotype 5a HCV-SGR, stable Huh7.5 cells, luciferase; type: cell-based, hepatitis C virus; conditions: 48 h, read-out: Mean EC50 ± SD, HCV-SGR Genotype 5a
CypA-NS5A interaction = CypA-NS5A interaction (Homo sapiens, UniProt P62937); type: binding
Chain of CypA-NS5A interaction (P62937 whole entry): as above

[9] = test system: Infectious J6/JFH1 HCV genotype 2a/2a; experiment: infectious HCV model, luciferase; type: cell-based, hepatitis C virus; conditions: read-out: Mean EC50 ± SD, Infectious J6/JFH1 HCV genotype 2a/2a
[10] = test system: genotype 1b HCV-SGR(L31V/Y93H); experiment: microbe, parasite or virus in culture; type: cell-based, hepatitis C virus
genotype 1b HCV-SGR = experiment: microbe, parasite or virus in culture; type: cell-based, hepatitis C virus
Protocol: Candidate resistance-associated substitutions (RASs) were introduced into a wild-type genotype 1b HCV-SGR containing the luciferase reporter gene by means of site-directed mutagenesis (QuikChange II XL site-directed mutagenesis kit; Agilent Technologies, Santa Clara, CA, USA). Ninety-six hours after RNA transfection, the susceptibility of the RAS-containing HCV-SGR to compound 31 was determined by measurement of luciferase activity and comparison to wild-type HCV-SGR susceptibility. The replication capacity of the RAS-containing HCV-SGR was assessed by comparing luciferase activities at 4 h and 96 h posttransfection and expressed as a percentage of the wild-type replication capacity.

[11] = test system: HCV genotype 1b bicistronic replicon (I389-Neo/NS3-3'/5.1); experiment: genotype 1b HCV-SGR replicon model, stable Huh7.5 cells, RT-qPCR; type: cell-based, hepatitis C virus; conditions: 3 days
Protocol: of at least two independent measurements.
The cells were treated for
without G418. […] HCV‐SGR RNA
results were normalized to GAPDH.
replicates in cell culture.
antiviral activities. Nat Commun 7:12777.

Huh7 cells = conditions: read-out: 50% cytotoxic concentration (CC50); flavivirus experiments
[12] = test system: full-length infectious HCV genotype 3a (DBN-3acc); experiment: full-length DBN-3acc replication, RT-qPCR; type: cell-based, hepatitis C virus; conditions: at 10 μM, Huh7.5 cells, 120 hours
Source text: Madison, Wisconsin, USA).
(Promega) and quantified by RT‐qPCR.
(1 mi n ). […] The percent inhibition of […]

[13] = test system: DENV-4 strain Dominica 814669; experiment: DENV replication in Huh7 cells, RT-qPCR; type: cell-based, dengue virus; conditions: RT-qPCR at 48 h postinfection
Huh7.5 cells = experiment: cytotoxicity MTT assay; type: cell-based, Human; conditions: at its effective concentration, 3 days
WNV = WNV replication; type: cell-based, West Nile virus; conditions: 50 μM the highest concentration tested, data not shown
CypA PPIase activity = CypA PPIase activity (Homo sapiens, UniProt P62937); experiment: CypA PPIase enzyme assay, chymotrypsin coupled; conditions: read-out: PPIase inhibition IC50, 20°C
Chain of CypA PPIase activity (P62937 whole entry): as above

YFV strain Dakar HD 1279 = type: cell-based, yellow fever virus; conditions: Huh7 cells, RT-qPCR at 48 h postinfection; read-out: EC50, YFV replication
[14] = molecular target: CypA-NS5A-D320E interaction (Homo sapiens, UniProt P62937); type: binding; conditions: NS5A-D320E-Rluc, CypA-6His on Ni-NTA beads
Chain of CypA-NS5A-D320E interaction (P62937 whole entry, stated change not applied): as the sequence (P62937 whole entry) above

JEV = JEV replication; type: cell-based, Japanese encephalitis virus; conditions: data not shown

SMILES: C/C=C/C[C@@H](C)[C@@H](O)[C@H]1C(=O)N[C@@H](CC)C(=O)N(C)[C@H](C)C(=O)N(CC)[C@@H](C(C)C)C(=O)N[C@@H](C(C)C)C(=O)N(C)[C@@H](CC(C)C)C(=O)N[C@@H](C)C(=O)N[C@H](C)C(=O)N(C)[C@@H](CC(C)C)C(=O)N(C)[C@@H](CC(C)C)C(=O)N(C)[C@@H](C(C)C)C(=O)N1C [ALV, Alisporivir, reference compound]
- inhibition of ZIKV replication (ZIKV strain MR766; data not shown): did not inhibit
- Kd (CypA; purified CypA): < 5 nM
- EC50 ([1]; Hepatitis C virus, GETYPE2A, Huh7.5, 72 h): 10 ± 2 nM
- EC50 ([2]; Hepatitis C virus): 20 ± 1 nM
- EC50 ([3]; Hepatitis C virus): 30 ± 4 nM
- EC50 ([4]; Hepatitis C virus): 40 ± 10 nM
- EC50 ([5]; Hepatitis C virus): 120 ± 50 nM
- EC50 ([6]; Hepatitis C virus): 60 ± 20 nM
- EC50 ([7]; Hepatitis C virus): 40 ± 4 nM
- EC50 ([8]; Hepatitis C virus): 30 ± 4 nM
- EC50 (genotype 1a HCV-SGR; Hepatitis C virus, stable Huh7.5 cells, 48 h, luciferase, read-out: Mean EC50 ± SD, HCV-SGR Genotype 1a): 40 ± 30 nM
- EC50 (genotype 2a HCV-SGR; Hepatitis C virus, GETYPE2A, Huh7.5, 48 h): 20 ± 10 nM
- EC50 (genotype 3a HCV-SGR; Hepatitis C virus): 20 ± 10 nM
- EC50 (genotype 5a HCV-SGR; Hepatitis C virus): 10 ± 10 nM
- disruption of the CypA-NS5A interaction (CypA-NS5A interaction): disrupted
- EC50 ([9]; Hepatitis C virus, Huh7.5, 72 h): 30 ± 2 nM
- EC50 ([10]; Hepatitis C virus, 84 h, read-out: Mean EC50 ± SD, L31V/Y93H): 10 ± 1 nM
- EC50 (genotype 1b HCV-SGR; Hepatitis C virus, transient, Huh7.5 cells, 96 h posttransfection, luciferase, read-out: Mean EC50 ± SD, HCV-SGR Genotype 1b): 30 ± 10 nM
- EC50 (genotype 1b HCV-SGR; Hepatitis C virus, wild-type genotype 1b HCV-SGR, read-out: Mean EC50 ± SD, WT): 30 ± 10 nM

SMILES: CSc1ccccc1C1CCCN1C(=O)C(NC(=O)NCc1ccc(N)cc1)c1ccccc1 (centres unmarked) [Compound C31]
- EC50 [11]: 400 ± 10 nM
- CC50 (Huh7 cells): ≥ 100000 nM
- EC50 (ZIKV strain MR766; Huh7 cells, RT-qPCR at 48 h postinfection): 48000 ± 5600 nM
- maximal HCV RNA reduction, DBN-3acc RNA replication [12]: 244 fold
- Kd (CypA; read-out: Kd, displacement of labeled CsA from CypA, purified CypA): 105 nM
- EC50 ([1]; transient, Huh7.5 cells, 72 h posttransfection, luciferase): 1400 ± 1100 nM
- EC50 [13]: 7300 ± 3500 nM
- Fold change, I133V ([2]; EC50 relative to wild type): 0.9
- EC50 ([2]; genotype 1b HCV-SGR): 2750 ± 200 nM
- Fold change, E442G ([3]; EC50 relative to wild type): 1.0
- EC50 ([3]; genotype 1b HCV-SGR): 2990 ± 700 nM
- Fold change, L303P ([4]; EC50 relative to wild type): 1.0
- EC50 ([4]; genotype 1b HCV-SGR): 3050 ± 400 nM
- Fold change, D320E ([5]; EC50 relative to wild type): 3.0
- EC50 ([5]; genotype 1b HCV-SGR): 8730 ± 1100 nM
- Fold change, Y321H ([6]; EC50 relative to wild type): 1.8
- EC50 ([6]; genotype 1b HCV-SGR): 5410 ± 400 nM
- Fold change, K308I ([7]; EC50 relative to wild type): 0.9
- EC50 ([7]; genotype 1b HCV-SGR): 2590 ± 200 nM
- Fold change, R304W ([8]; EC50 relative to wild type): 0.8
- EC50 ([8]; genotype 1b HCV-SGR): 2470 ± 200 nM
- cell viability (Huh7.5 cells): did not affect
- EC50 (WNV): > 50000 nM
- EC50 (genotype 1a HCV-SGR; stable Huh7.5 cells, 48 h, luciferase, read-out: Mean EC50 ± SD, HCV-SGR Genotype 1a): 3800 ± 1900 nM
- IC50 (CypA PPIase activity): 100 ± 10 nM
- EC50 (genotype 2a HCV-SGR; transient, Huh7.5 cells, 48 h posttransfection, luciferase): 2300 ± 1200 nM
- EC50 (genotype 3a HCV-SGR): 7760 ± 1570 nM
- EC50 (genotype 5a HCV-SGR): 1200 ± 830 nM
- EC50 (YFV strain Dakar HD 1279): 27200 ± 4700 nM
- disruption of the NS5A-D320E interaction with CypA [14]: fully sensitive
- disruption of the CypA-NS5A interaction (CypA-NS5A interaction; WT-NS5A-Rluc, CypA-6His on Ni-NTA beads): disrupted
- EC50 ([9]; Huh7.5 cells, 72 h, luciferase): 2800 ± 400 nM
- effect against JEV replication (JEV): no effect
- Fold change, WT (genotype 1b HCV-SGR; EC50 relative to wild type): 1.0
- EC50 (genotype 1b HCV-SGR; transient, Huh7.5 cells, 96 h posttransfection, luciferase, read-out: Mean EC50 ± SD, HCV-SGR Genotype 1b): 2950 ± 600 nM
- EC50 (genotype 1b HCV-SGR; wild-type genotype 1b HCV-SGR, read-out: Mean EC50 ± SD, WT): 2950 ± 600 nM

SMILES: Nc1ccc(CNC(=O)NCC(=O)N2CCCC2c2cccc3ccccc23)cc1 (centres unmarked) [Compound C32]
- EC50 [11]: 9010 ± 2040 nM
- IC50 (CypA PPIase activity): 1490 ± 450 nM

SMILES: CSc1ccccc1C1CCCN1C(=O)C(C)NC(=O)NCc1ccc(N)cc1 (centres unmarked) [Compound C33, 1‐[(4‐aminophenyl)methyl]‐3‐(1‐{2‐[2‐(methylsylfanyl)phenyl]pyrrolidin‐1‐yl}‐1‐oxopropan‐2‐yl)urea]
- EC50 [11]: 12900 ± 1200 nM
- IC50 (CypA PPIase activity): 3080 ± 1170 nM

SMILES: CSCCC(NC(=O)NCc1ccc(N)cc1)C(=O)N1CCCC1c1ccccc1SC (centres unmarked) [Compound C34]
- EC50 [11]: 1630 ± 380 nM

SMILES: Nc1ccc(CNC(=O)NCC(=O)N2CCCC2c2ccccc2Br)cc1 (centres unmarked) [Compound C35]
- EC50 [11]: 4510 ± 520 nM

SMILES: COc1ccccc1C1CCCN1C(=O)CNC(=O)NCc1ccc(N)cc1 (centres unmarked) [Compound C36]
- EC50 [11]: 19700 ± 2900 nM
- IC50 (CypA PPIase activity): 5030 ± 1810 nM

SMILES: COC(=O)N[C@H](C(=O)N1CC2(CC2)C[C@H]1c1nc(-c2ccc3c(c2)C(F)(F)c2cc(-c4ccc5[nH]c([C@@H]6[C@H]7CC[C@H](C7)N6C(=O)[C@@H](NC(=O)OC)C(C)C)nc5c4)ccc2-3)c[nH]1)C(C)C [LDV, ledipasvir]
- EC50 (genotype 1a HCV-SGR; Hepatitis C virus, Huh7.5, read-out: EC50 used in the combination study, genotype 1a HCV-SGR): 0.01 nM
- increase in the LDV EC50, L31V and Y93H substitutions ([10]; genotype 1b HCV-SGR, versus wild type, data not shown): 714 fold
